pIC50: −log10 of the molar value. Where two headings read alike, the source gives them in different places.
How the values were obtained:
[1] = molecular target: JAK2 (Homo sapiens, UniProt O60674); assay: Kinase selectivity profiling
[2] = molecular target: GLK (Homo sapiens, UniProt Q8IVH8); assay: Kinase selectivity profiling
[3] = molecular target: CK1γ1 (Homo sapiens, UniProt Q9HCP0); assay: Kinase selectivity profiling
[4] = In vitro plasma stability study; format: in vitro ADME; settings: for half-life at 2 µg/mL: 37°C, read-out: in vitro t1/2 (converted); for R squared / Slope: linear regression 0–10 h
Protocol: The incubation was terminated by the addition of 300 µL of acetonitrile containing 50 ng/mL roblitinib as internal standard. After vortex and centrifugation, the supernatant was analyzed using ultraperformance liquid chromatography-tandem mass spectrometry.

[5] = molecular target: INSR (Homo sapiens, UniProt P06213); assay: Kinase selectivity profiling
[6] = molecular target: Erk5 (Homo sapiens, UniProt Q13164); assay: Kinase selectivity profiling
[7] = molecular target: ABL2 (Homo sapiens, UniProt P42684); assay: Kinase selectivity profiling
[8] = molecular target: BRK (Homo sapiens, UniProt Q13882); assay: Kinase selectivity profiling
[9] = molecular target: AurB (Homo sapiens, UniProt Q96GD4); assay: Kinase selectivity profiling
[10] = molecular target: ROS1 (Homo sapiens, UniProt P08922); assay: Kinase selectivity profiling
[11] = tested on: Huh7; assay: Huh7 viability assay; format: cell-based; settings: Homo sapiens, Huh-7; Huh7, FGF19-overexpressing HCC cell line, 72 h, CCK-8
Protocol: Hep3B (ThermoFisher Scientific, 11965, America) and Huh7 (ThermoFisher Scientific, 11095, America) cells were seeded into 96-well plates at 4000 cells/well and 2000 cells/well, respectively. […] Cell viabilities were measured by a CCK-8 kit (Vazyme, China). The IC50 values were calculated using GraphPad Prism software.

[12] = molecular target: CDK1/CycA2 (Homo sapiens, UniProt P06493); assay: Kinase selectivity profiling
[13] = molecular target: FGFR2 (Homo sapiens, UniProt P21802); assay: Kinase selectivity profiling
[14] = molecular target: DCAMKL1 (Homo sapiens, UniProt O15075); assay: Kinase selectivity profiling
[15] = molecular target: PI3K(p120gamma) (Homo sapiens, UniProt P48736); assay: Kinase selectivity profiling
[16] = molecular target: p38α (Homo sapiens, UniProt Q16539); assay: Kinase selectivity profiling
[17] = molecular target: Erk1 (Homo sapiens, UniProt P27361); assay: Kinase selectivity profiling
[18] = molecular target: NPM1-ALK (Homo sapiens, UniProt P06748+Q9UM73); assay: Kinase selectivity profiling
[19] = molecular target: AKT3 (Homo sapiens, UniProt Q9Y243); assay: Kinase selectivity profiling
[20] = molecular target: FGFR1 (Homo sapiens, UniProt P11362); assay: Kinase selectivity profiling
[21] = molecular target: AMPKα1/β1/γ1 (Homo sapiens, UniProt Q13131); assay: Kinase selectivity profiling
[22] = molecular target: PIK3CD/PIK3R1 (Homo sapiens, UniProt O00329); assay: Kinase selectivity profiling
[23] = molecular target: CK2α2/β (Homo sapiens, UniProt P19784); assay: Kinase selectivity profiling
[24] = molecular target: GSK3α (Homo sapiens, UniProt P49840); assay: Kinase selectivity profiling
[25] = molecular target: TYRO3 (Homo sapiens, UniProt Q06418); assay: Kinase selectivity profiling
[26] = molecular target: JAK1 (Homo sapiens, UniProt P23458); assay: Kinase selectivity profiling
[27] = molecular target: p38γ (Homo sapiens, UniProt P53778); assay: Kinase selectivity profiling
[28] = molecular target: PIM1 (Homo sapiens, UniProt P11309); assay: Kinase selectivity profiling
[29] = molecular target: RSK1 (Homo sapiens, UniProt Q15418); assay: Kinase selectivity profiling
[30] = molecular target: DYRK2 (Homo sapiens, UniProt Q92630); assay: Kinase selectivity profiling
[31] = molecular target: AXL (Homo sapiens, UniProt P30530); assay: Kinase selectivity profiling

Sequence of GLK (Q8IVH8 whole entry): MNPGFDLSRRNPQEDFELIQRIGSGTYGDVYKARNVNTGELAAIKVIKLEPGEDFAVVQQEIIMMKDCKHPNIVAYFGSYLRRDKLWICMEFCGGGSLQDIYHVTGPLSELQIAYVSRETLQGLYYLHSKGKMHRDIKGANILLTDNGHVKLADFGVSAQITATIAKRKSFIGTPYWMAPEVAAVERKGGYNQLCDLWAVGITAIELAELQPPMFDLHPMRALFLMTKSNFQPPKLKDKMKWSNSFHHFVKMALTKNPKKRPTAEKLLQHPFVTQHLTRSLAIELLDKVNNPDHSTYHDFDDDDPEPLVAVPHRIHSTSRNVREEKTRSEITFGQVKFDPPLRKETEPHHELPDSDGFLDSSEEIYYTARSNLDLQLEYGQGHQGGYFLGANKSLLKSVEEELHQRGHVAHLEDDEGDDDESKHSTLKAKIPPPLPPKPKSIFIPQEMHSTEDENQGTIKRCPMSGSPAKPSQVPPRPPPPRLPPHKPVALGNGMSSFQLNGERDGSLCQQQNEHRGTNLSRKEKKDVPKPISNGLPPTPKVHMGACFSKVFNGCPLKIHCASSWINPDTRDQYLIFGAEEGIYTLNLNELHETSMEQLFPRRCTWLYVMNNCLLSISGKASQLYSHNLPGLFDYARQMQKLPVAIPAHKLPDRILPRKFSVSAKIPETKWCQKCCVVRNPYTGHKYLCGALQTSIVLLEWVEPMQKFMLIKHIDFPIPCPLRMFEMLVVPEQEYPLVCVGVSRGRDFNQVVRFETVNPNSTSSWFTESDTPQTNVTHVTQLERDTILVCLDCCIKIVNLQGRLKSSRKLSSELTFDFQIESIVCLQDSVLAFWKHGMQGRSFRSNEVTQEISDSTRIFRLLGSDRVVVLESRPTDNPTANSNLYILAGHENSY
Sequence of DYRK2 (Q92630 whole entry): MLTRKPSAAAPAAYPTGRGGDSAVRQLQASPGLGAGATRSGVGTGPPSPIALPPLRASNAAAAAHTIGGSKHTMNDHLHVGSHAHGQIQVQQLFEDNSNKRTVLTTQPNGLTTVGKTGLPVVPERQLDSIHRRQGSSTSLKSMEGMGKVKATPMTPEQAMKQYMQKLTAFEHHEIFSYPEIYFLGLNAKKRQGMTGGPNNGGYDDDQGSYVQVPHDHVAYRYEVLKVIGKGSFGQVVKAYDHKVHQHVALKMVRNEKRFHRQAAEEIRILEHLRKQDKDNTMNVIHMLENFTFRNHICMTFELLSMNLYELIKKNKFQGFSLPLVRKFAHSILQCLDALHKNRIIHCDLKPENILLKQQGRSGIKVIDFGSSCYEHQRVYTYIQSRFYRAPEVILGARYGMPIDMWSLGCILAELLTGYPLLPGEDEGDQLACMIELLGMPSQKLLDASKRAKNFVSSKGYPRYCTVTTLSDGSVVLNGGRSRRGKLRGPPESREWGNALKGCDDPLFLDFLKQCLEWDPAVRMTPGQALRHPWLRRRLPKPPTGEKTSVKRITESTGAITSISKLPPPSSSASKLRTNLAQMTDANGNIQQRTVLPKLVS
Sequence of FGFR2 (P21802 22-821): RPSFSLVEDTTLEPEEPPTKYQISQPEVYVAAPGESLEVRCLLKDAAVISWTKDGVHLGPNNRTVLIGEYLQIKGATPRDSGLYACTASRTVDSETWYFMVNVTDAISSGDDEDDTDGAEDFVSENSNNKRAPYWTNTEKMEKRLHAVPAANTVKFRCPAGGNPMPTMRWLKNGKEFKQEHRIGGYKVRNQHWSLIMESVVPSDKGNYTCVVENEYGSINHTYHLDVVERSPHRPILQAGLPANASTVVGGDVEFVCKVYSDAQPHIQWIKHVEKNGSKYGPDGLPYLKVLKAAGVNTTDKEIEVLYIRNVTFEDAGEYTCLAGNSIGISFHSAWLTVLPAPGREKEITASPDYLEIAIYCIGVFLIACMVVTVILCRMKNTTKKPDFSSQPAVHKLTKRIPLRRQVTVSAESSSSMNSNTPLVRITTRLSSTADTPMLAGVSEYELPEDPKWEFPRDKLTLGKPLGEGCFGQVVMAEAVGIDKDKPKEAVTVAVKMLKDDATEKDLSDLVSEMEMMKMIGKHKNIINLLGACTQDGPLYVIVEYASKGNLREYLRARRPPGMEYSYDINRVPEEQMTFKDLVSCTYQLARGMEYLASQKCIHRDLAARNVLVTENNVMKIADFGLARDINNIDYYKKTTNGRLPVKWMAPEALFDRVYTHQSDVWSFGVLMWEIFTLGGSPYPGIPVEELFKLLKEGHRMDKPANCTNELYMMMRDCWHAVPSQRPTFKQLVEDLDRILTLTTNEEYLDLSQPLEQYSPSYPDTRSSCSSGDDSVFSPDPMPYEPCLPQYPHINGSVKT
Sequence of ROS1 (P08922 28-2347): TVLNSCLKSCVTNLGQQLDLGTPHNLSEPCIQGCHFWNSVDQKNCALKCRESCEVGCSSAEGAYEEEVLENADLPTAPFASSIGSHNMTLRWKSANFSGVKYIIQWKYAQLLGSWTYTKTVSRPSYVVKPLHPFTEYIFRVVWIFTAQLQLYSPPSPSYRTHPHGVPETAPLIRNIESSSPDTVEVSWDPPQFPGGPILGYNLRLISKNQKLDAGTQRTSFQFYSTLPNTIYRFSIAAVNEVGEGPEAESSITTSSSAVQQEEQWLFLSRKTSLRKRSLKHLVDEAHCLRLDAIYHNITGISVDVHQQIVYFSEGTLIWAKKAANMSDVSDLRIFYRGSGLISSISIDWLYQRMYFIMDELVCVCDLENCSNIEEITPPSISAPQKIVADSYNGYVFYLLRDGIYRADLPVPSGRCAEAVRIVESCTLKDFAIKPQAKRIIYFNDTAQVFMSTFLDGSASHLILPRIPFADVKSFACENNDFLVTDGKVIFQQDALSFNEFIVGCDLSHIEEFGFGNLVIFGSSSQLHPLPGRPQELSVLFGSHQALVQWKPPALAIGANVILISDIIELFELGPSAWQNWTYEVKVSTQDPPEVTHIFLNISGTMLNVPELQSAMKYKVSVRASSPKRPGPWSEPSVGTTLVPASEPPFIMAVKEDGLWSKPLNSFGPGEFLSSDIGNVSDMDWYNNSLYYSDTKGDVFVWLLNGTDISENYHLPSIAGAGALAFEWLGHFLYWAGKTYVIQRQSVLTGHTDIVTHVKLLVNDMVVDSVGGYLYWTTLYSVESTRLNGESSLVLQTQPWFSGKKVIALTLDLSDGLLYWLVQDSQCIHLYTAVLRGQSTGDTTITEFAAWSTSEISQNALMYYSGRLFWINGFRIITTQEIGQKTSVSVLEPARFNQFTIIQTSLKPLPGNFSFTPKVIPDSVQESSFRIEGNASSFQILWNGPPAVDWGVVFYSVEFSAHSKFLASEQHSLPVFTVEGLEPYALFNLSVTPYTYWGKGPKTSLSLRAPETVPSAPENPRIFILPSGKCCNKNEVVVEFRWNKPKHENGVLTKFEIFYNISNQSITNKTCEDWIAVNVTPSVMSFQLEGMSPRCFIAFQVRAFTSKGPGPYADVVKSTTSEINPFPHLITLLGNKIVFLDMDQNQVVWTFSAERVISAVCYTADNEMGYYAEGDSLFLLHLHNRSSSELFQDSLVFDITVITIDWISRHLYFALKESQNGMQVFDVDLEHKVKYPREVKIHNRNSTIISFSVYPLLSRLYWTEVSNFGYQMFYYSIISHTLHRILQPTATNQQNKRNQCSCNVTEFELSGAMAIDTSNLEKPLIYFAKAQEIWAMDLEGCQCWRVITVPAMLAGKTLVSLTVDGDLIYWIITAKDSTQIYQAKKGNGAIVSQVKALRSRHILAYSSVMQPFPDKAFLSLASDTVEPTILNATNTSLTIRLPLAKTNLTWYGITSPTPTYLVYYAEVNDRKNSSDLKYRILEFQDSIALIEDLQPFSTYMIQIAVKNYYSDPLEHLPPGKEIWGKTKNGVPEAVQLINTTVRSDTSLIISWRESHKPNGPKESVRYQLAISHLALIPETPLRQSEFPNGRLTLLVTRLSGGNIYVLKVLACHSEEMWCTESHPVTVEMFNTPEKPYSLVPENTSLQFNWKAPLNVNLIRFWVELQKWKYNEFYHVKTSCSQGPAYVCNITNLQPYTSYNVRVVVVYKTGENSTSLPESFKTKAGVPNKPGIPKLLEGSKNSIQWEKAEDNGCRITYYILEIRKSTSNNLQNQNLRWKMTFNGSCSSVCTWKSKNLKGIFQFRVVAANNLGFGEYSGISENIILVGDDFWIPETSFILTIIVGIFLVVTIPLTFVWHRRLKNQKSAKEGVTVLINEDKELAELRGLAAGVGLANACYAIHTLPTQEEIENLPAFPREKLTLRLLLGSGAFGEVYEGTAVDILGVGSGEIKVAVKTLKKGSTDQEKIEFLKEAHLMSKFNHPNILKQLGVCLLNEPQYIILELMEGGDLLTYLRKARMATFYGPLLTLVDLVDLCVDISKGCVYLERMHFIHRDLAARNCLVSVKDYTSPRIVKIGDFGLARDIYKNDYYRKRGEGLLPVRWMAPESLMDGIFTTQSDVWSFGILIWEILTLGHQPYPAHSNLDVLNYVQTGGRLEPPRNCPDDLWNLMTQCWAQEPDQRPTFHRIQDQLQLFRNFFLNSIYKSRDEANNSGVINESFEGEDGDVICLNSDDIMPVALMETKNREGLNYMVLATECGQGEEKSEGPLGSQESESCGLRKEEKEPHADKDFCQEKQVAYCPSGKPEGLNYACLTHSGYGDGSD
Sequence of PIM1 (P11309 whole entry): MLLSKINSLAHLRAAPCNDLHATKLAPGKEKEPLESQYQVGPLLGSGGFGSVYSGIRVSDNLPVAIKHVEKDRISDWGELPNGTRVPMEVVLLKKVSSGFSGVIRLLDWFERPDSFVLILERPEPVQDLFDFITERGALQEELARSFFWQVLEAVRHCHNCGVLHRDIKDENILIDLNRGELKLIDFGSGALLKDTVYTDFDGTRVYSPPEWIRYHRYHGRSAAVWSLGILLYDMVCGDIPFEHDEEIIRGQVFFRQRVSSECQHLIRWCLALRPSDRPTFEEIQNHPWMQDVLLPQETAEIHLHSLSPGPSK

Work on C=CC(=O)Nc1ccccc1Nc1ncc2c(n1)N(CCCN1CCN(C(=O)C=C)CC1)C(=O)N(c1cc(OC)cc(OC)c1)C2 [CXF-009] yielded an inhibition at 1 µM [1] of 0.56%, an inhibition at 1 µM [2] of 2.68% and an inhibition at 1 µM [3] of 4.78%. It also gave a half-life at 2 µg/mL ([4]; human plasma) of 3.73 h, a R squared ([4]; human plasma) of 0.9969 and a Slope ([4]; human plasma) of −0.1859. The half-life at 2 µg/mL ([4]; rat plasma) was 4.99 h, the R squared ([4]; rat plasma) was 0.9935 and the Slope ([4]; rat plasma) was −0.1388. For the same compound, the inhibition at 1 µM [5] was 0.8%, the inhibition at 1 µM [6] was 14% and the inhibition at 1 µM [7] was 1.61%. The inhibition at 1 µM [8] was 1.91%, the inhibition at 1 µM [9] was -2.47% and the inhibition at 1 µM [10] was -0.51%. The pIC50 [11] was 6.14, the inhibition at 1 µM [12] was -1.02% and the inhibition at 1 µM [13] was 0.27%. The inhibition at 1 µM [14] was 13.4%, the inhibition at 1 µM [15] was 15% and the inhibition at 1 µM [16] was 10.6%. The inhibition at 1 µM [17] was 3.99%, the inhibition at 1 µM [18] was 0.37% and the inhibition at 1 µM [19] was -0.52%. It also gave an inhibition at 1 µM [20] of 4.98%, an inhibition at 1 µM [21] of 2.23% and an inhibition at 1 µM [22] of -44.4%. The inhibition at 1 µM [23] was -7.98%, the inhibition at 1 µM [24] was 5.79% and the inhibition at 1 µM [25] was 0.8%. For the same compound, the inhibition at 1 µM [26] was -12.3%, the inhibition at 1 µM [27] was 0.13% and the inhibition at 1 µM [28] was 24.2%. It also gave an inhibition at 1 µM [29] of -2.52%, an inhibition at 1 µM [30] of 0.38% and an inhibition at 1 µM [31] of -7.53%.

— paper PMC9814781, “Structure-based design of a dual-warhead covalent inhibitor of FGFR4” (Communications Chemistry, 2022)
